Assay results reported in ChEMBL document CHEMBL1201862, “PubChem BioAssay data set” (2004).
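Interpolation was linear, between the two tested concentrations surrounding the appropriate level; five concentrations were tested over 48 hours in 96-well plates. GI50 marks 50% less growth.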 Activity calls are given as the source filed them. Cut-off read from the data, not from the text of the source: active = GI50 up to about 1.1 µM and inactive = higher.

Assays:
Experiment in all cases: NCI-60 cell line screen, 48 h
[1] = tested on: T47D
[2] = tested on: LOX IMVI
[3] = tested on: A498
[4] = tested on: UACC-257
[5] = tested on: MOLT-4
[6] = tested on: NCI-H522
[7] = tested on: U-251
[8] = tested on: MDA-MB-435
[9] = tested on: DU-145
[10] = tested on: RXF 393
[11] = tested on: SF-295
[12] = tested on: IGROV-1
[13] = tested on: MDA-N
[14] = tested on: HOP-62
[15] = tested on: Hs-578T
[16] = tested on: EKVX
[17] = tested on: 786-0
[18] = tested on: SK-MEL-28
[19] = tested on: KM12
[20] = tested on: OVCAR-8

Row | SMILES | GI50 [1] | GI50 [2] | GI50 [3] | GI50 [4] | GI50 [5] | GI50 [6] | GI50 [7] | GI50 [8] | GI50 [9] | GI50 [10] | GI50 [11] | GI50 [12] | GI50 [13] | GI50 [14] | GI50 [15] | GI50 [16] | GI50 [17] | GI50 [18] | GI50 [19] | GI50 [20]
1 | O=[N+]([O-])c1ccc(Cl)cc1C1ON=C(c2ccccc2)N1C12CC3CC(CC(C3)C1)C2 (stereo not given) | > 100 µM (inactive) | 57.5 µM (inactive) | > 100 µM (inactive) | > 100 µM (inactive) | > 100 µM (inactive) | > 100 µM (inactive) | > 100 µM (inactive) | > 100 µM (inactive) | > 100 µM (inactive) | > 100 µM (inactive) | > 100 µM (inactive) | > 100 µM (inactive) | > 100 µM (inactive) | > 100 µM (inactive) | > 100 µM (inactive) | > 100 µM (inactive) | > 100 µM (inactive) | > 100 µM (inactive) | – | –
2 | CCOC(=O)c1cc2c(C(=O)c3ccc([N+](=O)[O-])cc3)c(C(C)=O)ccc2[nH]1 | 29.9 µM (inactive) | 99.8 µM (inactive) | 50.5 µM (inactive) | > 100 µM (inactive) | > 100 µM (inactive) | 8.2 µM (inactive) | 9.51 µM (inactive) | 7.66 µM (inactive) | 32.7 µM (inactive) | 15.2 µM (inactive) | 23.6 µM (inactive) | 26.9 µM (inactive) | 11.8 µM (inactive) | 4.43 µM (inactive) | 9.84 µM (inactive) | > 100 µM (inactive) | 7.36 µM (inactive) | > 100 µM (inactive) | > 100 µM (inactive) | –
3 | C=C(C)[C@H]1C2=CC(C(=O)OC)=C(C[C@H](C(=C)C)[C@@H](O)[C@@H](O)C3=C[C@H]1OC3=O)O2 | > 100 µM (inactive) | > 100 µM (inactive) | > 100 µM (inactive) | > 100 µM (inactive) | 97.5 µM (inactive) | > 100 µM (inactive) | > 100 µM (inactive) | > 100 µM (inactive) | > 100 µM (inactive) | > 100 µM (inactive) | > 100 µM (inactive) | 80.2 µM (inactive) | > 100 µM (inactive) | > 100 µM (inactive) | > 100 µM (inactive) | > 100 µM (inactive) | > 100 µM (inactive) | – | > 100 µM (inactive) | > 100 µM (inactive)
4 | C=C(C)[C@H]1C2=CC(C)=C(O2)[C@@H](O[C@@H]2c3oc(cc3C)[C@H](C(=C)C)[C@H]3C=C(CC[C@H]2C(=C)C)C(=O)O3)[C@H](C(=C)C)CCC2=C[C@H]1OC2=O | > 100 µM (inactive) | > 100 µM (inactive) | > 100 µM (inactive) | > 100 µM (inactive) | > 100 µM (inactive) | > 100 µM (inactive) | > 100 µM (inactive) | > 100 µM (inactive) | > 100 µM (inactive) | – | > 100 µM (inactive) | > 100 µM (inactive) | > 100 µM (inactive) | 81.1 µM (inactive) | > 100 µM (inactive) | > 100 µM (inactive) | > 100 µM (inactive) | > 100 µM (inactive) | > 100 µM (inactive) | > 100 µM (inactive)
5 | CCn1c2ccc(O)c(C(=O)OC)c2c2cc3ccccc3c(O)c21 | 11.5 µM (inactive) | – | 13.1 µM (inactive) | 31.6 µM (inactive) | 7.87 µM (inactive) | 18.3 µM (inactive) | 18 µM (inactive) | 17 µM (inactive) | 14.5 µM (inactive) | 31.2 µM (inactive) | 27.5 µM (inactive) | 8 µM (inactive) | 20.5 µM (inactive) | 20.2 µM (inactive) | 7.89 µM (inactive) | 35 µM (inactive) | 12.3 µM (inactive) | 26.2 µM (inactive) | 15.3 µM (inactive) | 17.4 µM (inactive)
6 | CC1(C)CC23CC(C)(C)c4cccc(c42)OCc2ccc4ccc5ccc(nc5c4n2)COc2cccc1c23 | > 50 µM (inactive) | > 50 µM (inactive) | > 50 µM (inactive) | > 50 µM (inactive) | > 50 µM (inactive) | > 50 µM (inactive) | > 50 µM (inactive) | > 50 µM (inactive) | > 50 µM (inactive) | – | > 50 µM (inactive) | > 50 µM (inactive) | > 50 µM (inactive) | > 50 µM (inactive) | > 50 µM (inactive) | > 50 µM (inactive) | > 50 µM (inactive) | > 50 µM (inactive) | > 50 µM (inactive) | > 50 µM (inactive)
7 | COc1cc(C(c2ccc3c(c2)OCO3)N2C(=O)CCC2C(=O)O)cc(OC)c1OC (stereo not given) | > 100 µM (inactive) | > 100 µM (inactive) | > 100 µM (inactive) | > 100 µM (inactive) | > 100 µM (inactive) | > 100 µM (inactive) | > 100 µM (inactive) | > 100 µM (inactive) | > 100 µM (inactive) | – | > 100 µM (inactive) | > 100 µM (inactive) | > 100 µM (inactive) | > 100 µM (inactive) | > 100 µM (inactive) | > 100 µM (inactive) | > 100 µM (inactive) | > 100 µM (inactive) | > 100 µM (inactive) | > 100 µM (inactive)
8 | CC(C)=C[C@H]1C[C@H](C)[C@H]2CC[C@H](C)c3c2c1c(C)c1ncoc31 | 17.8 µM (inactive) | 20.1 µM (inactive) | 19.9 µM (inactive) | 18.4 µM (inactive) | 14.1 µM (inactive) | 16 µM (inactive) | 16.8 µM (inactive) | 17.8 µM (inactive) | 18 µM (inactive) | 11.9 µM (inactive) | 17 µM (inactive) | 13.9 µM (inactive) | 17.5 µM (inactive) | – | 17.6 µM (inactive) | 15.9 µM (inactive) | 18.5 µM (inactive) | 18.7 µM (inactive) | 17.7 µM (inactive) | 19.2 µM (inactive)
9 | CC(=O)c1c2n(n(-c3ccccc3)c1=O)C(=O)c1nccnc1-2 | > 100 µM (inactive) | > 100 µM (inactive) | > 100 µM (inactive) | > 100 µM (inactive) | > 100 µM (inactive) | > 100 µM (inactive) | > 100 µM (inactive) | > 100 µM (inactive) | > 100 µM (inactive) | > 100 µM (inactive) | > 100 µM (inactive) | > 100 µM (inactive) | > 100 µM (inactive) | – | > 100 µM (inactive) | > 100 µM (inactive) | > 100 µM (inactive) | > 100 µM (inactive) | > 100 µM (inactive) | > 100 µM (inactive)
10 | COc1cc([C@@H]2c3cc4c(cc3[C@@H](OC3OC5CO[C@@H](c6cccs6)OC5C(O)C3O)[C@H]3COC(=O)[C@H]23)OCO4)cc(OC)c1O (stereo not given in full) | 0.162 µM (active) | 0.206 µM (active) | 0.394 µM (active) | 1.86 µM (inactive) | – | 0.482 µM (active) | 0.147 µM (active) | 1.34 µM (inactive) | 0.324 µM (active) | 0.478 µM (active) | 0.144 µM (active) | 1.7 µM (inactive) | 1.03 µM (active) | 0.135 µM (active) | 0.42 µM (active) | 1.3 µM (inactive) | 0.285 µM (active) | 1.66 µM (inactive) | 0.753 µM (active) | 0.538 µM (active)
11 | Cc1ccc(-c2n[nH]c(=O)n2N)cc1 | > 100 µM (inactive) | > 100 µM (inactive) | > 100 µM (inactive) | > 100 µM (inactive) | > 100 µM (inactive) | > 100 µM (inactive) | > 100 µM (inactive) | > 100 µM (inactive) | > 100 µM (inactive) | – | > 100 µM (inactive) | > 100 µM (inactive) | > 100 µM (inactive) | > 100 µM (inactive) | > 100 µM (inactive) | > 100 µM (inactive) | > 100 µM (inactive) | > 100 µM (inactive) | > 100 µM (inactive) | > 100 µM (inactive)
12 | CSc1nc(Nc2cccc(C(F)(F)F)c2)c2c(N)nn(C)c2n1 | 71.8 µM (inactive) | 71.1 µM (inactive) | 48 µM (inactive) | > 100 µM (inactive) | 49 µM (inactive) | 34 µM (inactive) | > 100 µM (inactive) | > 100 µM (inactive) | > 100 µM (inactive) | 20.5 µM (inactive) | 38 µM (inactive) | > 100 µM (inactive) | > 100 µM (inactive) | > 100 µM (inactive) | > 100 µM (inactive) | – | > 100 µM (inactive) | > 100 µM (inactive) | > 100 µM (inactive) | > 100 µM (inactive)
13 | Nc1cccc2cc(S(=O)(=O)Nc3ccc(C(=O)O)cc3)ccc12 | > 100 µM (inactive) | > 100 µM (inactive) | > 100 µM (inactive) | > 100 µM (inactive) | – | > 100 µM (inactive) | > 100 µM (inactive) | > 100 µM (inactive) | > 100 µM (inactive) | > 100 µM (inactive) | > 100 µM (inactive) | > 100 µM (inactive) | > 100 µM (inactive) | > 100 µM (inactive) | > 100 µM (inactive) | > 100 µM (inactive) | > 100 µM (inactive) | > 100 µM (inactive) | > 100 µM (inactive) | > 100 µM (inactive)
14 | C=CCOc1ccc(C2(O)c3ccccc3C3=NCCCN32)cc1 (stereo not given) | 27.9 µM (inactive) | 48.8 µM (inactive) | > 100 µM (inactive) | 21.4 µM (inactive) | 33.2 µM (inactive) | 21.2 µM (inactive) | 43.2 µM (inactive) | 30.1 µM (inactive) | > 100 µM (inactive) | – | 51.5 µM (inactive) | 28.6 µM (inactive) | 36.1 µM (inactive) | 60.5 µM (inactive) | > 73.8 µM (inactive) | 80.5 µM (inactive) | 38.3 µM (inactive) | 24.5 µM (inactive) | 44.5 µM (inactive) | > 100 µM (inactive)
